Values quoted from earlier work as cited in patent US12516015B2 (AMALIVE LIMITED, priority 2009, dated 2026).

With `O=C(O)Cc1ccccc1` [phenyl acetic acid] as the molecule, how does the pKa read?
Its pKa is roughly 4.28.
